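48-hour exposure; five concentrations; linearly interpolated endpoints. GI50 marks 50% less growth. TGI: total growth inhibition.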
Assays:
Experiment in all cases: growth of human tumour cells (NCI), 48 h
CCRF-CEM leukemia = system: CCRF-CEM leukemia
HOP-92 NSCLC = system: HOP-92 NSCLC
IGROV1 ovarian = system: IGROV1 ovarian
K-562 leukemia = system: K-562 leukemia
NCI-H226 lung = system: NCI-H226 lung
SK-MEL-5 melanoma = system: SK-MEL-5 melanoma
SNB-75 CNS = system: SNB-75 CNS
TK-10 renal = system: TK-10 renal
HCT-15 colon = system: HCT-15 colon
HL-60(TB) leukemia = system: HL-60(TB) leukemia

Structure (SMILES)	TGI (CCRF-CEM leukemia) [µM]	TGI (HOP-92 NSCLC) [µM]	TGI (IGROV1 ovarian) [µM]	TGI (K-562 leukemia) [µM]	TGI (NCI-H226 lung) [µM]	TGI (SK-MEL-5 melanoma) [µM]	TGI (SNB-75 CNS) [µM]	TGI (TK-10 renal) [µM]	TGI (HCT-15 colon) [µM]	TGI (HL-60(TB) leukemia) [µM]	GI50 (CCRF-CEM leukemia) [µM]	GI50 (HCT-15 colon) [µM]	GI50 (HL-60(TB) leukemia) [µM]	GI50 (HOP-92 NSCLC) [µM]	GI50 (IGROV1 ovarian) [µM]	GI50 (K-562 leukemia) [µM]	GI50 (NCI-H226 lung) [µM]	GI50 (SK-MEL-5 melanoma) [µM]	GI50 (SNB-75 CNS) [µM]	GI50 (TK-10 renal) [µM]
COc1cc2c(cc1OC)-c1cc3ccccc3c[n+]1CC2	> 100	> 100	> 100	> 100	> 100	> 100	> 100	> 100	–	–	–	–	–	–	–	–	–	–	–	–
CCOc1ccc2nc(-c3ccc(O)cc3)sc2c1	–	–	> 100	> 100	> 100	> 100	–	> 100	> 100	8.81	–	–	–	–	–	–	–	–	–	–
O=C(Nc1cccc(-n2ccc3c(NC(=O)c4ccccc4)nccc32)c1)c1ccc(N2CCOCC2)c(C(F)(F)F)c1	> 100	6.87	> 75.4	> 100	> 92.9	0.169	25.9	> 100	> 64.7	4.82	0.0618	0.037	0.0393	0.179	0.057	0.0387	0.0827	0.0349	0.023	0.0782
CC1(C)CC23C4COC(=O)C2CCC1C3CC4=O (stereo not drawn)	43.4	29.3	69	123	20.6	32.7	57.6	–	21.9	12.6	–	–	–	–	–	–	–	–	–	–
COC1=C2CC(C)CC(OC)C(O)C(C)/C=C(\C)C(OC(N)=O)C(OC)/C=C\C=C(/C)C(=O)NC(=C(C=NC(C)(C)C)C1=O)C2=O (stereo not drawn)	22.2	1.35	53.2	6.26	13.8	15.4	6.15	–	33.1	1.86	–	–	–	–	–	–	–	–	–	–
O=C1OC[C@@H]2[C@@H](O)CCCCCN12	> 100	> 100	> 100	> 100	> 100	> 100	> 100	> 100	> 100	> 100	–	–	–	–	–	–	–	–	–	–
Fc1ccc2[nH]cc(-c3nc(-c4c[nH]c5ncccc45)cs3)c2c1	–	–	> 100	> 100	–	–	> 100	> 100	–	–	–	–	–	–	4.46	5.03	–	–	1.58	> 100
N/C(=N\N=C/c1ccccc1O)NO	> 50.9	> 67.6	> 100	> 77.6	64.8	> 100	> 29.9	–	> 100	> 36	–	–	–	–	–	–	–	–	–	–
Nc1ncnc2c1ncn2C1OC(COP(=O)(O)O)C(O)C1O (stereo not drawn)	> 50	> 46.6	> 50	> 50	> 50	> 50	> 50	–	> 50	> 50	–	–	–	–	–	–	–	–	–	–
CCOC(=O)NC(Nc1ncccn1)(C(F)(F)F)C(F)(F)F	> 100	–	–	> 100	> 100	–	> 100	> 100	> 100	> 100	–	–	–	–	–	–	–	–	–	–
CCS(=O)(=O)N1CCC(C(C)n2c(C)c(C(=O)NCc3c(OC)cc(C)[nH]c3=O)c3ccccc32)CC1 (stereo not drawn)	–	–	> 100	–	> 100	> 100	> 100	> 100	> 100	–	–	> 100	–	–	57.6	–	> 100	> 100	36.3	> 100

Source: PubChem BioAssay (NCI)
